Test results: ChEMBL document CHEMBL1158870, “Antitumor agents. 180. Chemical Studies and cytotoxic evaluation of cumingianosides and cumindysoside A, antileukemic triterpene glucosides with a 14,18-cycloapotirucallane skeleton” (1997)

Legend:
SK-OV-3 = test: Cytotoxicity against human SKOV3 cells by SRB assay; assay type: functional
COLO 205 = test: Cytotoxicity against human COLO205 cells by SRB assay; assay type: functional
HCT-15 = test: Cytotoxicity against human HCT15 cells by SRB assay; assay type: functional
EKVX = test: Cytotoxicity against human EKVX cells by SRB assay; assay type: functional
MDA-MB-231 = test: Cytotoxicity against human MDA-MB-231 cells by SRB assay; assay type: functional
SNB-75 = test: Cytotoxicity against human SNB75 cells by SRB assay; assay type: functional
NCI-H322M = test: Cytotoxicity against human NCI-H322M cells by SRB assay; assay type: functional
SF-295 = test: Cytotoxicity against human SF295 cells by SRB assay; assay type: functional
SN12C = test: Cytotoxicity against human SN12C cells by SRB assay; assay type: functional
[1] = Cytotoxicity against human breast cancer cells by SRB assay; assay type: functional; conditions: Cancer cell lines
CAKI-1 = test: Cytotoxicity against human Caki1 cells by SRB assay; assay type: functional
HCT-116 = test: Cytotoxicity against human HCT116 cells by SRB assay; assay type: functional
IGROV-1 = test: Cytotoxicity against human IGROV1 cells by SRB assay; assay type: functional
[2] = Cytotoxicity against human prostate cancer cells by SRB assay; assay type: functional; conditions: Cancer cell lines
SR = test: Cytotoxicity against human SR cells by SRB assay; assay type: functional
ACHN = test: Cytotoxicity against human ACHN cells by SRB assay; assay type: functional
UACC-62 = test: Cytotoxicity against human UACC62 cells by SRB assay; assay type: functional
Leukemia cell = test: Cytotoxicity against human Leukemia cells by SRB assay; assay type: functional
[3] = Cytotoxicity against human MCF7/ADR cells by SRB assay; assay type: functional; conditions: NCI/ADR-RES
OVCAR-4 = test: Cytotoxicity against human OVCAR4 cells by SRB assay; assay type: functional
[4] = Cytotoxicity against human HL60(TB) cells by SRB assay; assay type: functional, HL-60(TB); conditions: HL-60
A498 = test: Cytotoxicity against human A498 cells by SRB assay; assay type: functional
[5] = Cytotoxicity against human renal cancer cells by SRB assay; assay type: functional; conditions: Cancer cell lines
OVCAR-5 = test: Cytotoxicity against human OVCAR5 cells by SRB assay; assay type: functional
MDA-N = test: Cytotoxicity against human MDA-N cells by SRB assay; assay type: functional
NCI-H460 = test: Cytotoxicity against human NCI-H460 cells by SRB assay; assay type: functional
[6] = Cytotoxicity against human Colon cancer cells by SRB assay; assay type: functional; conditions: Cancer cell lines
LOX IMVI = test: Cytotoxicity against human LOXIMVI cells by SRB assay; assay type: functional
RPMI-8226 = test: Cytotoxicity against human RPMI8226 cells by SRB assay; assay type: functional
A549 = test: Cytotoxicity against human A549 cells by SRB assay; assay type: functional
[7] = Cytotoxicity against human ovarian cancer cells by SRB assay; assay type: functional; conditions: Cancer cell lines
SK-MEL-2 = test: Cytotoxicity against human SK-MEL-2 cells by SRB assay; assay type: functional
K562 = test: Cytotoxicity against human K562 cells by SRB assay; assay type: functional
RXF 393 = test: Cytotoxicity against human RXF393 cells by SRB assay; assay type: functional
UO-31 = test: Cytotoxicity against human UO31 cells by SRB assay; assay type: functional
M14 = test: Cytotoxicity against human M14 cells by SRB assay; assay type: functional
OVCAR-8 = test: Cytotoxicity against human OVCAR8 cells by SRB assay; assay type: functional
SW-620 = test: Cytotoxicity against human SW620 cells by SRB assay; assay type: functional
CCRF-CEM = test: Cytotoxicity against human CCRF-CEM cells by SRB assay; assay type: functional
SK-MEL-5 = test: Cytotoxicity against human SK-MEL-5 cells by SRB assay; assay type: functional
Malme-3M = test: Cytotoxicity against human MALME-3M cells by SRB assay; assay type: functional
SF-268 = test: Cytotoxicity against human SF268 cells by SRB assay; assay type: functional
HT-29 = test: Cytotoxicity against human HT29 cells by SRB assay; assay type: functional
NCI-H23 = test: Cytotoxicity against human NCI-H23 cells by SRB assay; assay type: functional
T47D = test: Cytotoxicity against human T47D cells by SRB assay; assay type: functional
SK-MEL-28 = test: Cytotoxicity against human SK-MEL-28 cells by SRB assay; assay type: functional
NCI-H226 = test: Cytotoxicity against human NCI-H226 cells by SRB assay; assay type: functional
UACC-257 = test: Cytotoxicity against human UACC257 cells by SRB assay; assay type: functional
MDA-MB-435 = test: Cytotoxicity against human MDA-MB-435 cells by SRB assay; assay type: functional
[8] = Cytotoxicity against human Hs 578T cells by SRB assay; assay type: functional
OVCAR-3 = test: Cytotoxicity against human OVCAR-3 cells by SRB assay; assay type: functional
NSCLC = test: Cytotoxicity against human NSCLC cells by SRB assay; assay type: functional
HOP-62 = test: Cytotoxicity against human HOP62 cells by SRB assay; assay type: functional
NCI-H522 = test: Cytotoxicity against human NCI-H522 cells by SRB assay; assay type: functional
KM12 = test: Cytotoxicity against human KM12 cells by SRB assay; assay type: functional
BT-549 = test: Cytotoxicity against human BT549 cells by SRB assay; assay type: functional
MOLT-4 = test: Cytotoxicity against human MOLT4 cells by SRB assay; assay type: functional
MCF7 = test: Cytotoxicity against human MCF7 cells by SRB assay; assay type: functional
DU-145 = test: Cytotoxicity against human DU145 cells by SRB assay; assay type: functional
HCC 2998 = test: Cytotoxicity against human HCC2998 cells by SRB assay; assay type: functional
U-251 = test: Cytotoxicity against human U251 cells by SRB assay; assay type: functional
HOP-92 = test: Cytotoxicity against human HOP92 cells by SRB assay; assay type: functional
[9] = Cytotoxicity against human CNS cancer cells by SRB assay; assay type: functional; conditions: Cancer cell lines
[10] = Cytotoxicity against human melanoma cells by SRB assay; assay type: functional; conditions: Melanoma cell
PC-3 = test: Cytotoxicity against human PC3 cells by SRB assay; assay type: functional
SNB-19 = test: Cytotoxicity against human SNB19 cells by SRB assay; assay type: functional
[11] = Cytotoxicity against human 786-O cells by SRB assay; assay type: functional; conditions: 786-0

Work on `CC(=O)OC[C@H]1O[C@@H](O[C@@H]2C[C@H]3C(C)(C)[C@H](OC(C)=O)CC[C@]3(C)[C@H]3CCC4=C([C@@H](C)C[C@@H](O)[C@H](O)C(C)(C)O)CC[C@@]4(C)[C@@]32C)[C@H](O)[C@@H](O)[C@@H]1O` yielded a GI50 (SK-OV-3) of 17.8 µM, a GI50 (COLO 205) of 15.8 µM and a TGI (COLO 205) of 30.2 µM. The GI50 (HCT-15) was 17 µM, the TGI (HCT-15) was 30.8 µM and the GI50 (EKVX) was 17 µM. For the same molecule, the GI50 (MDA-MB-231) was 11.5 µM, the GI50 (SNB-75) was 13.2 µM and the GI50 (NCI-H322M) was 17.4 µM. It also gave a GI50 (SF-295) of 17.4 µM, a GI50 (SN12C) of 16.2 µM and a TGI [1] of 28.9 µM. It also gave a GI50 (CAKI-1) of 15.5 µM, a GI50 (HCT-116) of 14.1 µM and a TGI (HCT-116) of 27.2 µM. For the same molecule, the GI50 (IGROV-1) was 16.2 µM, the TGI [2] was 29.9 µM and the GI50 (SR) was 12.3 µM. It also gave a GI50 (ACHN) of 17.8 µM, a GI50 (UACC-62) of 12.6 µM and a TGI (Leukemia cell) of 32.2 µM. The GI50 [3] was 20.4 µM, the GI50 (OVCAR-4) was 17 µM and the GI50 [4] was 12.9 µM. It also gave a GI50 (A498) of 17.4 µM, a TGI [5] of 30.8 µM and a GI50 (OVCAR-5) of 17.8 µM. For the same molecule, the GI50 (MDA-N) was 17 µM, the GI50 (NCI-H460) was 15.8 µM and the TGI [6] was 30.2 µM. For the same molecule, the GI50 (LOX IMVI) was 12.6 µM, the GI50 (RPMI-8226) was 10.5 µM and the GI50 (A549) was 19.1 µM. It also gave a TGI [7] of 30.4 µM, a GI50 (SK-MEL-2) of 16.2 µM and a GI50 (K562) of 12.6 µM. It also gave a GI50 (RXF 393) of 14.8 µM, a GI50 (UO-31) of 18.2 µM and a GI50 (M14) of 17.4 µM. The GI50 (OVCAR-8) was 15.8 µM, the GI50 (SW-620) was 17 µM and the TGI (SW-620) was 30.7 µM. The GI50 (CCRF-CEM) was 15.8 µM, the GI50 (SK-MEL-5) was 16.2 µM and the GI50 (Malme-3M) was 16.6 µM. It also gave a GI50 (SF-268) of 16.6 µM, a GI50 (HT-29) of 16.6 µM and a TGI (HT-29) of 30.1 µM. It also gave a GI50 (NCI-H23) of 16.6 µM, a GI50 (T47D) of 16.6 µM and a GI50 (SK-MEL-28) of 17 µM. It also gave a GI50 (NCI-H226) of 17.4 µM, a GI50 (UACC-257) of 16.2 µM and a GI50 (MDA-MB-435) of 15.8 µM. It also gave a GI50 [8] of 15.1 µM, a GI50 (OVCAR-3) of 14.5 µM and a TGI (NSCLC) of 30.3 µM. It also gave a GI50 (HOP-62) of 16.2 µM, a GI50 (NCI-H522) of 13.2 µM and a GI50 (KM12) of 22.4 µM. The TGI (KM12) was 37.1 µM, the GI50 (BT-549) was 15.5 µM and the GI50 (MOLT-4) was 13.2 µM. The GI50 (MCF7) was 2880 nM, the GI50 (DU-145) was 17.8 µM and the GI50 (HCC 2998) was 12 µM. The TGI (HCC 2998) was 25.2 µM, the GI50 (U-251) was 6.03 µM and the GI50 (HOP-92) was 14.5 µM. It also gave a TGI [9] of 28.2 µM, a TGI [10] of 29.1 µM and a GI50 (PC-3) of 14.5 µM. The GI50 (SNB-19) was 14.5 µM and the GI50 [11] was 18.2 µM.
